Source: ChEMBL document CHEMBL5678818, “Discovery of potent SOS1 inhibitors that block RAS activation via disruption of the RAS-SOS1 interaction” (Proc Natl Acad Sci U S A, 2019)

Legend:
[1] = biological target: Ephrin type-A receptor 7 (Homo sapiens) (UniProt Q15375); experiment: Inhibition of EPHA7 (unknown origin) assessed as residual activity at 100 nM by KINOMEscan analysis relative to control
[2] = biological target: T1, Inhibitor of nuclear factor kappa-B kinase subunit epsilon (Homo sapiens) (UniProt Q14164); experiment: Inhibition of IKK-epsilon (unknown origin) assessed as residual activity at 100 nM by KINOMEscan analysis relative to control
T1 sequence (whole entry): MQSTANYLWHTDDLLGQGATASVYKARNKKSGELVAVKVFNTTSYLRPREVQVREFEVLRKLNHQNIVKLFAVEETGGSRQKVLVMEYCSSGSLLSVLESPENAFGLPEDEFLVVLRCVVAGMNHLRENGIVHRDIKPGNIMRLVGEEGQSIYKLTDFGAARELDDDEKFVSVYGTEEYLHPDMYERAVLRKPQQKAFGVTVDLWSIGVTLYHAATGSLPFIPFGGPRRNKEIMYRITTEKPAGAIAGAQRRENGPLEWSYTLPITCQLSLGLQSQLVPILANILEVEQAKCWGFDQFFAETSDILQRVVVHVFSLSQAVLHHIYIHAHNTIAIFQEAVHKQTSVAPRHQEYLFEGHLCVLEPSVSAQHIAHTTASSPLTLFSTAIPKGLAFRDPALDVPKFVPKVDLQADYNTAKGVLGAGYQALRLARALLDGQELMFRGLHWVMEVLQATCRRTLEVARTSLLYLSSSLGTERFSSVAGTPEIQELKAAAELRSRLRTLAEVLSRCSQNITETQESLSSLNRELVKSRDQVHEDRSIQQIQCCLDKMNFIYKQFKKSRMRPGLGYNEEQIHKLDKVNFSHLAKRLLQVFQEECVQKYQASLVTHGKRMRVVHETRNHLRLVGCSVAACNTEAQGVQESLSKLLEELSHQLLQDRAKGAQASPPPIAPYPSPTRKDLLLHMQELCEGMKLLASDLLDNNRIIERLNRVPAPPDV

[3] = biological target: Ribosomal protein S6 kinase alpha-5 (Homo sapiens) (UniProt O75582); experiment: Inhibition of C-terminal RPS6KA5 kinetic domain 2 (unknown origin) assessed as residual activity at 100 nM by KINOMEscan analysis relative to control
[4] = biological target: T2, Homeodomain-interacting protein kinase 4 (Homo sapiens) (UniProt Q8NE63); experiment: Inhibition of HIPK4 (unknown origin) assessed as residual activity at 100 nM by KINOMEscan analysis relative to control
T2 sequence (whole entry): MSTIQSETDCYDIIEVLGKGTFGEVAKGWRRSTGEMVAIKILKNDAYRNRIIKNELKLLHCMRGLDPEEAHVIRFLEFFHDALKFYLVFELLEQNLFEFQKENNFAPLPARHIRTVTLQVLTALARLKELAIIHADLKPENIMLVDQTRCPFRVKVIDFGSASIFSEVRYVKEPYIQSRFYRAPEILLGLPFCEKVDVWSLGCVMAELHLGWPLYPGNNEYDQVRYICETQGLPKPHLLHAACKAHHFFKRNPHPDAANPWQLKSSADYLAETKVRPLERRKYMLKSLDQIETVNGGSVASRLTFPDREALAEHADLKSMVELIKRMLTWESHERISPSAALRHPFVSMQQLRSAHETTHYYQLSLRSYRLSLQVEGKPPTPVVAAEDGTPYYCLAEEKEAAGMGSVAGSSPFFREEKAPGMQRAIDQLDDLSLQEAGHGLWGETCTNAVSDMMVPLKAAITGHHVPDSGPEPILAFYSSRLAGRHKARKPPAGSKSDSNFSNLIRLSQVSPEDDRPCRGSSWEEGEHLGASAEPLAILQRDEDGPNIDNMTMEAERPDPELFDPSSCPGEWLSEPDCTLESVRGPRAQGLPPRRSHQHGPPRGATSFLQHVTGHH

[5] = biological target: Dual specificity tyrosine-phosphorylation-regulated kinase 1A (Homo sapiens) (UniProt Q13627); experiment: Inhibition of DYRK1A (unknown origin) assessed as residual activity at 100 nM by KINOMEscan analysis relative to control
[6] = biological target: Serine/threonine-protein kinase MRCK beta (Homo sapiens) (UniProt Q9Y5S2); experiment: Inhibition of MRCKB (unknown origin) assessed as residual activity at 100 nM by KINOMEscan analysis relative to control
[7] = biological target: TGF-beta receptor type-2 (Homo sapiens) (UniProt P37173); experiment: Inhibition of TGFBR2 (unknown origin) assessed as residual activity at 100 nM by KINOMEscan analysis relative to control
[8] = biological target: T3, Ephrin type-B receptor 4 (Homo sapiens) (UniProt P54760); experiment: Inhibition of EPHB4 (unknown origin) assessed as residual activity at 100 nM by KINOMEscan analysis relative to control
T3 sequence (whole entry): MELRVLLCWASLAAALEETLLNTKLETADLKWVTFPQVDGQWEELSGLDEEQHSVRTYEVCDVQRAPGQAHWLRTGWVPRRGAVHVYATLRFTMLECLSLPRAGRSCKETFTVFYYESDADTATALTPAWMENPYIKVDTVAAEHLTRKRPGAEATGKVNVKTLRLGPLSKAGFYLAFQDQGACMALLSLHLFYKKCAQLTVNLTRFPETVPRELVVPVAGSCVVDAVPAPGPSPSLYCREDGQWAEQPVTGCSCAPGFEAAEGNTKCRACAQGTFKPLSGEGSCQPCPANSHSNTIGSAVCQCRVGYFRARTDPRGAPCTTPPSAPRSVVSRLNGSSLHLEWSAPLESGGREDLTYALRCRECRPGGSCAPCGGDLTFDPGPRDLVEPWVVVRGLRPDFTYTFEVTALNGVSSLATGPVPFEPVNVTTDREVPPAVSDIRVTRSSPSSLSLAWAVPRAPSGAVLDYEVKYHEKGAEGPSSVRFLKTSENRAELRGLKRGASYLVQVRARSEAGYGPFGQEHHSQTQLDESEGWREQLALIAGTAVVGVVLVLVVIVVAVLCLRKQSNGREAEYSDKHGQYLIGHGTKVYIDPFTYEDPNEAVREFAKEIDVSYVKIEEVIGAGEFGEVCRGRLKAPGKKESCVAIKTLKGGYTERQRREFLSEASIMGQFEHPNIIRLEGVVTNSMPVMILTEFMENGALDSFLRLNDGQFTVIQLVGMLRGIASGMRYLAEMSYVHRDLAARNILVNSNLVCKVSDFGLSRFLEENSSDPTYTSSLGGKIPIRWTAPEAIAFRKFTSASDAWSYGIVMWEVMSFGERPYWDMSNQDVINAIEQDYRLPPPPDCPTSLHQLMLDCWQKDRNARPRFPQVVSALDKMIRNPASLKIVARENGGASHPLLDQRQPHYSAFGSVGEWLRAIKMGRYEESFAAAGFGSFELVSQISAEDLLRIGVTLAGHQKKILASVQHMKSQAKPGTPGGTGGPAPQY

[9] = biological target: Calcium/calmodulin-dependent protein kinase type 1B (Homo sapiens) (UniProt Q6P2M8); experiment: Inhibition of CAMK1B (unknown origin) assessed as residual activity at 1000 nM by KINOMEscan analysis relative to control
Calcium/calmodulin-dependent protein kinase type 1B (Homo sapiens), sequence (Q6P2M8 whole entry): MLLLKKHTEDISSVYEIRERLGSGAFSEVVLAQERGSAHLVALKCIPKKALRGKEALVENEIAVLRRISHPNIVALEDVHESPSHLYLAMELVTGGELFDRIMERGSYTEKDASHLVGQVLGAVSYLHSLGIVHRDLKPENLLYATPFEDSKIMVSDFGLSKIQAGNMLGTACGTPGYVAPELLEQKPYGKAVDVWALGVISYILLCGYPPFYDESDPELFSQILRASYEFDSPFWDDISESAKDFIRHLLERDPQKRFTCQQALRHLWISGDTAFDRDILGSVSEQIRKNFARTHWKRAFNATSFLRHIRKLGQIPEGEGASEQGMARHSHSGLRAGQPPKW

Ephrin type-A receptor 7 (Homo sapiens), sequence (Q15375 28-998 limits assumed): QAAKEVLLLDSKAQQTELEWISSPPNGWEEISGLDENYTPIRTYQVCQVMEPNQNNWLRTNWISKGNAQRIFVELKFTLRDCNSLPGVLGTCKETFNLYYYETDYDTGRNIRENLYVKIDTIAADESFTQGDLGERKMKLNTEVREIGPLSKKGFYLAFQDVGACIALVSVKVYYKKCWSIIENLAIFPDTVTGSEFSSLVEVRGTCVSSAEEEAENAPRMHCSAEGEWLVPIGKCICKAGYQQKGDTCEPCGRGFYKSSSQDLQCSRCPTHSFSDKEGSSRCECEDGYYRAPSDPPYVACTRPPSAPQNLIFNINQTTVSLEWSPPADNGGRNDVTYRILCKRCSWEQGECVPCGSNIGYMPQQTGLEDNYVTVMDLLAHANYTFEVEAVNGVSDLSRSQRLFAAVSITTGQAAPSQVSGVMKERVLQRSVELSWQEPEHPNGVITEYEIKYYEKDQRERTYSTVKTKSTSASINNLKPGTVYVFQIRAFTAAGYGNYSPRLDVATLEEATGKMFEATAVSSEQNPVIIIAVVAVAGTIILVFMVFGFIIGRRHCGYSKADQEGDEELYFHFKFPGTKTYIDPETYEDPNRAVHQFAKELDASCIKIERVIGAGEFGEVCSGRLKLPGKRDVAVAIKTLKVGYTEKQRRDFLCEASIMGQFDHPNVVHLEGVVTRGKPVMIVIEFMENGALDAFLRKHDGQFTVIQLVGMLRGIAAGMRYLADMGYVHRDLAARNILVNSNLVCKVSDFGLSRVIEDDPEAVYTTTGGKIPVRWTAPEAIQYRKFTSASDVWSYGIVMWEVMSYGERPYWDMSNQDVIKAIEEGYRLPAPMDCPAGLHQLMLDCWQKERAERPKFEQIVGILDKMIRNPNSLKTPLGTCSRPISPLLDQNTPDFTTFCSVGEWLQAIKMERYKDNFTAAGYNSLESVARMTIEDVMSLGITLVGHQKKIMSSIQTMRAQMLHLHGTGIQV
Ribosomal protein S6 kinase alpha-5 (Homo sapiens), sequence (O75582 whole entry, looked up, the tested form may be a part): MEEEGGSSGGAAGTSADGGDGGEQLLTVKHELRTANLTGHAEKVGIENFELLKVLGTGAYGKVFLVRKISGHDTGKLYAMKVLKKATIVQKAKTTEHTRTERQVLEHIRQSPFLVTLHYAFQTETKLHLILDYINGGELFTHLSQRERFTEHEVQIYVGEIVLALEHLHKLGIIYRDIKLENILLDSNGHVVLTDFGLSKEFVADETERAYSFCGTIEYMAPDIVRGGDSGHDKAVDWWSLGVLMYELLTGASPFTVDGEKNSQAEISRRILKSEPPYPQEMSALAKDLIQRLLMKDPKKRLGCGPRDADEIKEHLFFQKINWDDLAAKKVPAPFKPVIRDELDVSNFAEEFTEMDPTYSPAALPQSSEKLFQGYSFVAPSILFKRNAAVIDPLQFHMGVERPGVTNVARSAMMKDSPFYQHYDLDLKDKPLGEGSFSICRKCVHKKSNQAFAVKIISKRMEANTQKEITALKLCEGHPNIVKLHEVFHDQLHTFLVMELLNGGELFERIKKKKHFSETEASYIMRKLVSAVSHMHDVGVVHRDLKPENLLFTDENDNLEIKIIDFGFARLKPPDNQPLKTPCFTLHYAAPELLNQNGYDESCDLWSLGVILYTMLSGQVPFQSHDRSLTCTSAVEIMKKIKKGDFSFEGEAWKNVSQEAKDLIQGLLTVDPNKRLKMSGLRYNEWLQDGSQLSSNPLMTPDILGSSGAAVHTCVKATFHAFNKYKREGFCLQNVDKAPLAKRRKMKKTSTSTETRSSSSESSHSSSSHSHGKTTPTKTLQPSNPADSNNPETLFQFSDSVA
TGF-beta receptor type-2 (Homo sapiens), sequence (P37173 whole entry): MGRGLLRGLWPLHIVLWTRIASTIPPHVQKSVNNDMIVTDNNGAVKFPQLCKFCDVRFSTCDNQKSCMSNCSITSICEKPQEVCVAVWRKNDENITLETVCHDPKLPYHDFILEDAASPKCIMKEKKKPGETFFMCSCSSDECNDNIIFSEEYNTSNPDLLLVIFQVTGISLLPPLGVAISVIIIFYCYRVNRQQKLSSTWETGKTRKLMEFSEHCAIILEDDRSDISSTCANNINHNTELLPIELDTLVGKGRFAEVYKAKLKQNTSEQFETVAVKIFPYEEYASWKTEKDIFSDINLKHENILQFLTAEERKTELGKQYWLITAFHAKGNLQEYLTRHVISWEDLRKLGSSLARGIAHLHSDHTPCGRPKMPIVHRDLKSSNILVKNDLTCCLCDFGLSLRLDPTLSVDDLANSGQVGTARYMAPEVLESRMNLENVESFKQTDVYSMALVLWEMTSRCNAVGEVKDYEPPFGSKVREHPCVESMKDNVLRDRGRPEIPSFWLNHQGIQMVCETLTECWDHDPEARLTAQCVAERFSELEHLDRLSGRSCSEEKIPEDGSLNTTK
Serine/threonine-protein kinase MRCK beta (Homo sapiens), sequence (Q9Y5S2 whole entry): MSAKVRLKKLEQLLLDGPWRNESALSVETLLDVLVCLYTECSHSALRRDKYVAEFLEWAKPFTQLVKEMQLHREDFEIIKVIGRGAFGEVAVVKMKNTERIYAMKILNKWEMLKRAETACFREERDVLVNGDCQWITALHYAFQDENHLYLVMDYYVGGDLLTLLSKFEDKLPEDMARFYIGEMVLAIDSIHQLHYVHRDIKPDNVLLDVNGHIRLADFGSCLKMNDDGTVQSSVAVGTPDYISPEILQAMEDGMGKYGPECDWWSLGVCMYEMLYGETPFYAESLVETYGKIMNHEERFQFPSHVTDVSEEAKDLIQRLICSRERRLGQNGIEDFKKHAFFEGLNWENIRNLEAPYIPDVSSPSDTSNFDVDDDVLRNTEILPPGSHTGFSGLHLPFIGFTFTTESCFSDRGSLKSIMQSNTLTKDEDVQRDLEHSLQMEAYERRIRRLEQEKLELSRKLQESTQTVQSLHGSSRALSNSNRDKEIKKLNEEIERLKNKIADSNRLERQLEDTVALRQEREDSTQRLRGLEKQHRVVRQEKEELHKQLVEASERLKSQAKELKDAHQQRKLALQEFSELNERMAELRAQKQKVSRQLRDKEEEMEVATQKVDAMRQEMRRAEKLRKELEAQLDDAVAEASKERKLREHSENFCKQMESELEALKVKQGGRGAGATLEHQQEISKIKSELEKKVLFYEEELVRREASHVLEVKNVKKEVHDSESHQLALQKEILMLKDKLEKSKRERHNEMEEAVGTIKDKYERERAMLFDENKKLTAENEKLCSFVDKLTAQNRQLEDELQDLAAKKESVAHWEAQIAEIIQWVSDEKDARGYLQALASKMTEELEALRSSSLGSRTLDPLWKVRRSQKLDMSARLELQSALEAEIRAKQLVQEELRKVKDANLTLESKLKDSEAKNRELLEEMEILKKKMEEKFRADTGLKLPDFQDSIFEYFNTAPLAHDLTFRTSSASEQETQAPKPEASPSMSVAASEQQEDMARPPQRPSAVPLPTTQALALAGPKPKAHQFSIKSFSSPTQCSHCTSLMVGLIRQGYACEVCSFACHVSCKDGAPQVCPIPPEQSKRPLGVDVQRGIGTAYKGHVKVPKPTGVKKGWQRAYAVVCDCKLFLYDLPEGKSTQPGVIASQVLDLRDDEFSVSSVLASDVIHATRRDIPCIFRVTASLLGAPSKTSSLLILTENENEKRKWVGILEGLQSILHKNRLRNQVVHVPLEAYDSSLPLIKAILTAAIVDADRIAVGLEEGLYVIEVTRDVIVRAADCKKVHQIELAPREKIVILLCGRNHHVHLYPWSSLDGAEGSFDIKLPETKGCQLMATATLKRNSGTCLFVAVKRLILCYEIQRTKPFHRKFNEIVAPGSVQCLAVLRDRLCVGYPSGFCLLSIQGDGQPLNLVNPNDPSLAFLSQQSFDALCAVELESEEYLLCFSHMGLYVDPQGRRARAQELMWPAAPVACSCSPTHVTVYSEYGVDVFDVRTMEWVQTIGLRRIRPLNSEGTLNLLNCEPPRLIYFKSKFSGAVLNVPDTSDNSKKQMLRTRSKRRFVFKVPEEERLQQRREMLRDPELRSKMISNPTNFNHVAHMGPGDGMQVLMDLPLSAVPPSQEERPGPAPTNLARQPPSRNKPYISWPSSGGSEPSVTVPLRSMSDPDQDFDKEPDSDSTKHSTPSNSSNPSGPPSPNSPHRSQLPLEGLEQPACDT

Row | SMILES | Activity [1] | Activity [2] | Activity [3] | Activity [4] | Activity [5] | Activity [6] | Activity [7] | Activity [8] | Activity [9]
1 | COc1cc2ncnc(N[C@H](C)c3cccc4ccccc34)c2cc1OC | 78% | 100% | 52% | 100% | 90% | 82% | 93% | 75% | –
2 | COc1cc2nc(C)nc(N[C@H](C)c3cccc(-c4cn[nH]c4)c3)c2cc1OC | – | – | – | – | – | – | – | – | 85%
